Data published in patent publication US9249158B2, “Cytomegalovirus inhibitor compounds” (Boehringer Ingelheim International GmbH, priority 2012, dated 2016).

The compounds below were run against T1, purified recombinant HCMV polymerase (UL54) (Human cytomegalovirus, UniProt P08546) (assay: HCMV Polymerase LANCE TR-FRET Assay). Settings: not given.
T1 construct: made in house; host or cells: Sf21 insect cells (baculovirus)
Type: biochemical
Protocol: The codon optimized UL54 HCMV polymerase gene for expression in insect cells is obtained from DNA 2.0 (Menlo Park, Calif.) and subcloned in 3′ of the Glutathione-S-transferase (GST) gene in a pFastBac-derived vector. Bacmids and baculoviruses are generated and expression performed in Sf21 insect cells cultured in SF900 II SFM media. Infection using the baculoviruses is performed using an MOI of 5-10 and the cells are harvested 48 h post-infection and frozen.
All purification procedures are performed at 4° C. The cell pellet from 1 L of culture (1×10^9 cells) is resuspended in 25 mL of 50 mM Tris pH 7.5, 1 mM TCEP, 0.1 mM EDTA, 150 mM NaCl, 10% Glycerol, 1 mM PMSF, 2 μg/mL Leupeptin, 2 μg/mL Antipain, 2 μg/mL Pepstatin A. The solution is homogenized using a Dounce tissue grinder. Following homogenization, the volume is increased to 40 mL followed by centrifugation at 750×g for 5 min to remove nuclei. The supernatant is then transferred and 3 cc of 50% slurry of glutathione-sepharose 4B resin is added. The mixture is incubated on a rotator for 1 h. The slurry is centrifuged at 500 g for 5 min. The supernatant is discarded and the pellet is resuspended in 10× volume of wash buffer (50 mM Tris pH 7.5, 1 mM TCEP, 0.1 mM EDTA, 150 mM NaCl, 10% Glycerol) and incubated for 5 min. The slurry is centrifuged at 500 g for 5 min and the supernatant is discarded. The wash step is performed 5 times. The elution is performed by adding 1.5 volume of elution buffer (50 mM Tris pH 7.5, 1 mM TCEP, 0.1 mM EDTA, 150 mM NaCl, 10% Glycerol, 20 mM glutathione) and incubating on a rotator for 15 min. The slurry is centrifuged at 500 g for 5 min and the supernatant is removed and kept. The elution step is performed four times. The supernatants are pooled and centrifuged at 500×g for 5 min to remove resin particles and frozen at −80° C.
The frozen protein is thawed and the NaCl concentration reduced to 37.5 mM by the addition of 3 volumes of DEAE buffer A (50 mM Tris pH 7.5, 1 mM TCEP, 0.1 mM EDTA, 10% Glycerol). The protein is loaded on a HiTrap DEAE-Sepharose μF column and eluted using a gradient with DEAE buffer B (50 mM Tris pH 7.5, 1 mM TCEP, 0.1 mM EDTA, 10% Glycerol, 1 M NaCl). UL54 eluted at 140 mM NaCl. The DEAE fractions are pooled, frozen and stored at −80° C. The protein concentration is determined by OD280 (A280=1.03 mg/mL).
This non-radiometric assay determines the enzymatic activity of purified recombinant HCMV polymerase (UL54) using a Digoxigenin-labeled oligonucleotide priming a heteropolymeric template. The enzymatic activity is determined by incorporating Biotin-dUTP in the nascent complementary strand. The signal is generated by Fluorescence Resonance Energy Transfer from the donor (Anti-Digoxigenin-Europium Chelate binding with the primer) to the acceptor Streptavidin-AlloPhycoCyanin (SA-APC) binding to the biotin of the labeled nucleotides incorporated in proximity.
Serial dilutions of the DMSO stock compound solution are performed using DMSO in columns 2-11 and 14-23. DMSO alone is present in columns 1, 12, 13 and 24. The plate is centrifuged at 200×g for 30 sec. 35 μL of compound dilution buffer (10 mM Hepes pH 7.5, 25 mM KCl, 5 mM MgCl2, 1 mM TCEP) is added to 5 μL of the diluted compound in DMSO to obtain 12.5% DMSO. 4 μL per well of the 12.5% DMSO serial dilution compound solution is added to the assay plate.
The assay conditions are the following: 10 mM HEPES pH 7.5, 25 mM KCl, 7.5 mM NaCl, 5 mM MgCl2, 0.2 mg BSA/mL, 1 mM TCEP, 1.5% glycerol, 5% DMSO, 235 nM dATP, 350 nM dCTP, 350 nM dGTP, 235 nM dTTP, 12 nM biotin-16-dUTP, 23.5 nM Dig-primer/template, 2 nM GST-UL54. The assay volume is 10 μL. […]

T1 sequence (P08546 whole entry): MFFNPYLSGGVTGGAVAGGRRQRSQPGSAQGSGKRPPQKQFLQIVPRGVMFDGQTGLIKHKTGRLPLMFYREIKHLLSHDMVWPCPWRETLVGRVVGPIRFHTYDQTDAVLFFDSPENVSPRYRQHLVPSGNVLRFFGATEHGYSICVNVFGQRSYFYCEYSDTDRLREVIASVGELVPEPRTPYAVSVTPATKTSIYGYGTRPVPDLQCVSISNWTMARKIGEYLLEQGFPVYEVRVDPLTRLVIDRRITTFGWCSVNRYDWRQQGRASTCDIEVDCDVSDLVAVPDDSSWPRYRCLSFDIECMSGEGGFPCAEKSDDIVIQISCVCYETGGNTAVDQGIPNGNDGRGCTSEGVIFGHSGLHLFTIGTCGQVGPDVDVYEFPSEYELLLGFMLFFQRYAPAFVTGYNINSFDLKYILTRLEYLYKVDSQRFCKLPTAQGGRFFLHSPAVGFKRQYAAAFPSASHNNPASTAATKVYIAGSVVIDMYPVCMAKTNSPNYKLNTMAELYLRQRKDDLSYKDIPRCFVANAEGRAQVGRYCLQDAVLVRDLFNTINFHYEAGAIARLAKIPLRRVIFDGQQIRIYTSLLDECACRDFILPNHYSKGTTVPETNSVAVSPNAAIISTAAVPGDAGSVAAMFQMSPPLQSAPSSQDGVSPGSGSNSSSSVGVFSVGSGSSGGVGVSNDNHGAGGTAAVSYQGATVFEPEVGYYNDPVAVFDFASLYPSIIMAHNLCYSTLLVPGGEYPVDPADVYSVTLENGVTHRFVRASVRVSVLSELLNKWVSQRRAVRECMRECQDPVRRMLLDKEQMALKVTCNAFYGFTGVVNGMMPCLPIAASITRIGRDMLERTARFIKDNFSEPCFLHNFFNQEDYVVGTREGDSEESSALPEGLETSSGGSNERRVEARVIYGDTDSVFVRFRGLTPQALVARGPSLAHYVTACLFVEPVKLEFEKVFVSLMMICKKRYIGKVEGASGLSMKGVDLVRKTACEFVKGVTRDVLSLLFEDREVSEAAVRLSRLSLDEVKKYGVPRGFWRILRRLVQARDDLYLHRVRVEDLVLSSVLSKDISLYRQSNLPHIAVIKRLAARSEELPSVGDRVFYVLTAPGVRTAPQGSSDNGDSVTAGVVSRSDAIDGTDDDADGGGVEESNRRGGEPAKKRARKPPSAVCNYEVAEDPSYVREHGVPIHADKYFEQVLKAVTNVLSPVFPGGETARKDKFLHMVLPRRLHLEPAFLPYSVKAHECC

SMILES	IC50 [µM]
Cc1cc(Cl)ccc1CNC(=O)c1cc2c3c(cnc2n(CC(=O)N2CC(C)(F)C2)c1=O)nc(C)n3C [Compound 5038]	0.14

Same assay, conditions: 2 nM GST-UL54, 37° C. for 30 min, 5% DMSO; read-out: Example 34 IC50

IC50 [µM]	SMILES
0.19	Cc1nc2cnc3c(cc(C(=O)NCc4ccc(Cl)c(O)c4)c(=O)n3CC(=O)N3CC(C)(F)C3)c2n1C [Compound 5046]
0.21	CN(C)c1nc2c3cc(C(=O)NCc4ccc(Cl)cc4)c(=O)n(CC(=O)N4CC(C)(F)C4)c3ncc2n1C [Compound 2017]
0.33	CC1(C)CN(C(=O)Cn2c(=O)c(C(=O)NCc3ccc(Cl)cc3)cc3c4c(cnc32)NCCN4)C1 [Compound 5021]
0.46	CC1(C)CN(C(=O)Cn2c(=O)c(C(=O)NCc3ccc(Cl)cc3)cc3c4c(cnc32)NC(C)(C)CO4)C1 [Compound 5022]
0.075	COc1nc2cnc3c(cc(C(=O)NCc4ccc(Cl)cc4)c(=O)n3CC(=O)N3CC(C)(C#N)C3)c2n1C [Compound 1074]
0.24	COc1nc2c(cc(C(=O)NCc3ccc(Cl)cc3)c(=O)n2CC(=O)N2CC(C)(F)C2)c2c1nc(C)n2C [Compound 5035]
0.14	Cc1nc2cnc3c(cc(C(=O)NCc4ccc(C#N)cc4)c(=O)n3CC(=O)N3CC(C)(F)C3)c2n1C [Compound 3001]
0.16	CC1(C)CN(C(=O)Cn2c(=O)c(C(=O)NCc3ccc(Cl)cc3)cc3c4c(cnc32)-c2ccccc2CO4)C1 [Compound 5012]
0.065	Cc1cn(C)c2c1cnc1c2cc(C(=O)NCc2ccc(Cl)cc2)c(=O)n1CC(=O)N1CC(C)C1 [Compound 5007]
0.077	CC1(F)CN(C(=O)Cn2c(=O)c(C(=O)NCc3ccc(Cl)cc3)cc3c4nc5n(c4cnc32)CCC5)C1 [Compound 5004]
0.042	Cc1nc2cnc3c(cc(C(=O)NCc4ccc(Cl)cc4)c(=O)n3CC(=O)N(C)CC(C)(C)CO)c2n1C [Compound 1073]
0.093	Cc1nc2c3cc(C(=O)NCc4ccc(C#N)cc4)c(=O)n(CC(=O)N4CC(C)C4)c3ncc2n1C [Compound 4003]
0.069	CC1(F)CN(C(=O)Cn2c(=O)c(C(=O)NCc3ccc(Cl)cc3)cc3c4c(cnc32)nc2n4CCOC2)C1 [Compound 5002]
0.17	COc1cc(CNC(=O)c2cc3c4c(cnc3n(CC(=O)N3CC(C)(F)C3)c2=O)nc(C)n4C)ccc1Cl [Compound 5048]
0.26	Cc1nc2cnc3c(cc(C(=O)NCc4ccc(Cl)cc4)c(=O)n3CC(=O)N3CC4(C3)NCC4(F)F)c2n1C [Compound 1072]
0.089	Cn1c(=O)n(C)c2c3cc(C(=O)NCc4ccc(Cl)cc4)c(=O)n(CC(=O)N4CC(C)(F)C4)c3ncc21 [Compound 5006]
0.44	Cc1nc2cnc3c(cc(C(=O)NCc4ccc(Cl)cc4)c(=O)n3CC(=O)N3CC(C)(F)C3)c2nc1C [Compound 5037]
0.2	Cn1cc(N2CCOc3c2cnc2c3cc(C(=O)NCc3ccc(Cl)cc3)c(=O)n2CC(=O)N2CC(C)(F)C2)cn1 [Compound 5015]

Further lines, the compound ahead of its results:

SMILES	IC50 [µM]
Cc1nc2cnc3c(cc(C(=O)NCc4ccc(Cl)cc4)c(=O)n3CC(=O)N3CC(F)(CO)C3)c2n1C [Compound 1065]	0.035
Cn1c(-n2ccnc2)nc2cnc3c(cc(C(=O)NCc4ccc(Cl)cc4)c(=O)n3CC(=O)N3CC(C)(F)C3)c21 [Compound 1061]	0.06
Cc1nc2cnc3c(cc(C(=O)NCc4ccc(Cl)cc4)c(=O)n3CC(=O)N3CC(F)(CF)C3)c2n1C [Compound 1007]	0.048
Cn1c(N2CCOCC2)nc2cnc3c(cc(C(=O)NCc4ccc(Cl)cc4)c(=O)n3CC(=O)N3CC(C)(F)C3)c21 [Compound 1056]	0.11
CN(C)Cc1nc2cnc3c(cc(C(=O)NCc4ccc(Cl)cc4)c(=O)n3CC(=O)N3CC(C)(C)C3)c2n1C [Compound 1070]	0.061
Cn1c(N2CCCC2=O)nc2cnc3c(cc(C(=O)NCc4ccc(Cl)cc4)c(=O)n3CC(=O)N3CC(C)(F)C3)c21 [Compound 1038]	0.078
Cc1nc2cnc3c(cc(C(=O)NCc4ccc(Cl)cc4)c(=O)n3CC(=O)N3CC(C)(F)C3)c2n1C [Compound 1002]	0.038
COCc1nc2cnc3c(cc(C(=O)NCc4ccc(Cl)cc4)c(=O)n3CC(=O)N3CC(C)(F)C3)c2n1C [Compound 1031]	0.058
CC1(F)CN(C(=O)Cn2c(=O)c(C(=O)NCc3ccc(Cl)cc3)cc3c4c(cnc32)ncn4CCO)C1 [Compound 1024]	0.029
CCn1cnc2cnc3c(cc(C(=O)NCc4ccc(Cl)cc4)c(=O)n3CC(=O)N3CC(C)(F)C3)c21 [Compound 1004]	0.026
Cn1cc(-c2nc3cnc4c(cc(C(=O)NCc5ccc(Cl)cc5)c(=O)n4CC(=O)N4CC(C)(F)C4)c3n2C)cn1 [Compound 1016]	0.074
